# Laboratory results reported in US11072616B2, “Cyclic peptides targeting alpha-4-beta-7 integrin” (Zealand Pharma A/S, priority 2015, dated 2021).
# Molecular target: T1, integrin α4β7 (Homo sapiens, UniProt P13612+P26010)
# T1 sequence (P13612 34-977 limits assumed): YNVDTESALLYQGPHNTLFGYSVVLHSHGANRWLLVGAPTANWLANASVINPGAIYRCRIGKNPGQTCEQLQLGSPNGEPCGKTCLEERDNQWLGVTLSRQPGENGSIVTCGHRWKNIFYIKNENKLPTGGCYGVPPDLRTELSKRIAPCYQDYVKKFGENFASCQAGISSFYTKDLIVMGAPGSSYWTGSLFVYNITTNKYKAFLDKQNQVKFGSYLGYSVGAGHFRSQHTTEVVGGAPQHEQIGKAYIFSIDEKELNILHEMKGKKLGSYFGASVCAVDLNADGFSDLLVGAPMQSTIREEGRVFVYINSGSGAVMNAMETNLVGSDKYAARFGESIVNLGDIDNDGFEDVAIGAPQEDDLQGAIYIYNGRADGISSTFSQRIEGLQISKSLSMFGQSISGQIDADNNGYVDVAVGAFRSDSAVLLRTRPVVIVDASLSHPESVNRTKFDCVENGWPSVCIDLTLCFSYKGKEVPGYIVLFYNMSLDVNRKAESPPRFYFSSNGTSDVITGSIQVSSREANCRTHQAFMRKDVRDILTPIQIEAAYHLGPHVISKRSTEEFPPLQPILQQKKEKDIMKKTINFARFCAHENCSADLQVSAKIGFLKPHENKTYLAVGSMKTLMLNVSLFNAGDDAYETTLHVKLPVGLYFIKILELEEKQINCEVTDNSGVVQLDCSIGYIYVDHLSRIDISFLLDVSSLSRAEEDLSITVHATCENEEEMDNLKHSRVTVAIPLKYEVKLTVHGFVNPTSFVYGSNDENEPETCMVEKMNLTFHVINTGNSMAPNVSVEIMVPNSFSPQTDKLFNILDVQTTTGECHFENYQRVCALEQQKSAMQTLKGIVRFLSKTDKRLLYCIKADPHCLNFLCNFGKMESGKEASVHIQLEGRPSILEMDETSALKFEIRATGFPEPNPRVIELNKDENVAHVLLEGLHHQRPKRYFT
# T1 sequence (P26010 20-723 limits assumed): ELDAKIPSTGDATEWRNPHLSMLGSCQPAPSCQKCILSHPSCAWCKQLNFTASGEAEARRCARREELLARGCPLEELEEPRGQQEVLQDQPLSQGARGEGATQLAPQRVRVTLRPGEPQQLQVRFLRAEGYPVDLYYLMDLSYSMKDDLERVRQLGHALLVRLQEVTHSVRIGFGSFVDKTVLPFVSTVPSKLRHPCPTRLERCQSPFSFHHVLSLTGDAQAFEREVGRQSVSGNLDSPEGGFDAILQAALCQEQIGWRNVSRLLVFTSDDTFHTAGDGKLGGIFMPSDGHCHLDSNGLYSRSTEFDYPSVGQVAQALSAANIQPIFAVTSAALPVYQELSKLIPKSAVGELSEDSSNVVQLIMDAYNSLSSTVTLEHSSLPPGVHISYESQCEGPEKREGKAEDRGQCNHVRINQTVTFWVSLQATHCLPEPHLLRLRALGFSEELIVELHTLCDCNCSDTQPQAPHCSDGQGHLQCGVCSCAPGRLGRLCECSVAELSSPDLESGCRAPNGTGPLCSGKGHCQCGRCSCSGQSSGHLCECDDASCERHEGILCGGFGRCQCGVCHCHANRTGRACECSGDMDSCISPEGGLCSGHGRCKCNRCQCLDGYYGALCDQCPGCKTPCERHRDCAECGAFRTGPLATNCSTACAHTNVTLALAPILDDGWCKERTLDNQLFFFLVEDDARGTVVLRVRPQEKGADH
# Experiment: Integrin α4β7—MAdCAM-1 competition assay (ELISA)
# Format: binding
# Settings: ratio a4b1 ELISA IC50 / a4b7 ELISA IC50
# Experimental: Integrin α4β7—MAdCAM-1 Competition Assay
# The plate was incubated at 4° C. overnight. […] The plate was then incubated for 1 hour at room temperature. The plate was washed three times with wash buffer (50 mM Tris, 100 mM NaCl, 1 mM MnCl2, 0.05% Tween). To each well, 50 μl of compound diluted in assay buffer was added by transfer from a compound serial dilution plate. […] The plate was incubated at room temperature with shaking for 2 hours to reach binding equilibrium. Then the plate was washed three times in wash buffer and 100 μl anti-human IgG Fc specific-horseradish peroxidase (HRP) (Abcam, Ab97225) diluted at 1:2000 in assay buffer was added to each well. The plate was incubated at room temperature for 1 hour under agitation. The plates were then washed three times and 100 μl of 1,3′,5,5′-tetramethylbenxidie (TMB) was then added to each well.
row,SMILES,Selectivity ELISA
1,CC[C@@H](C)[C@@H]1NC(=O)[C@H](CC(=O)O)NC(=O)[C@H](CC(C)C)NC(=O)C[C@H](CCCCN)NC(=O)[C@H](Cc2ccc(CN)cc2)NC(=O)[C@@H]2CCCN2[C@H](C(=O)NC(C)(C)C)[C@H](C)NC1=O [Compound 285],6.2
2,CCO[C@H](C)[C@@H]1NC(=O)[C@H](CC(=O)O)NC(=O)[C@H](CC(C)C)NC(=O)[C@H](Cc2ccccc2)NC(=O)[C@@H]2CCCN2[C@H](C(=O)NC(C)(C)C)[C@H](C)NC1=O [Compound 41],2.5
3,CC(C)C[C@@H]1NC(=O)C[C@H](CCCCN)NC[C@H](Cc2ccc(CN)cc2)NC(=O)[C@@H]2CCCN2[C@H](C(=O)NC(C)(C)C)[C@H](C)NC(=O)[C@H]([C@@H](C)O)NC(=O)[C@H](CC(=O)O)NC1=O [Compound 218],16.5
4,CC(C)C[C@@H]1NC(=O)[C@H](C2CCCCC2)NC(=O)[C@@H]2CCCN2[C@H](C(=O)NC(C)(C)C)[C@H](C)NC(=O)[C@H]([C@@H](C)O)NC(=O)[C@H](CC(=O)O)NC1=O [Compound 91],14.5
5,CC(C)C[C@@H]1NC(=O)C[C@H](CCCCN)NC(=O)C2(Cc3ccccc3C2)NC(=O)[C@@H]2CCCN2[C@H](C(=O)NC(C)(C)C)[C@H](C)NC(=O)[C@H]([C@@H](C)O)NC(=O)[C@H](CC(=O)O)NC1=O [Compound 288],12.2
6,CC(C)C[C@@H]1NC(=O)[C@@H](CCCCN)NC(=O)[C@H](Cc2cccc3ccccc23)NC(=O)[C@@H]2CCCN2[C@H](C(=O)NC(C)(C)C)[C@H](C)NC(=O)[C@H]([C@@H](C)O)NC(=O)[C@H](CC(=O)O)NC1=O [Compound 120],19.1
7,CC(C)C[C@@H]1NC(=O)[C@@H](CCCNC(=N)N)N(C)C(=O)[C@H](Cc2ccc(O)cc2)NC(=O)[C@@H]2CCCN2[C@H](C(=O)NC(C)(C)C)[C@H](C)NC(=O)[C@H]([C@@H](C)O)NC(=O)[C@H](CC(=O)O)NC1=O [Compound 157],55.3
8,CC(C)C[C@@H]1NC(=O)C[C@H](CCCCN)NC(=O)[C@H](Cc2ccc(I)cc2)NC(=O)[C@@H]2CCCN2[C@H](C(=O)NC(C)(C)C)[C@H](C)NC(=O)[C@H]([C@@H](C)O)NC(=O)[C@H](CC(=O)O)NC1=O [Compound 260],58.1
9,COc1cccc(Cl)c1-c1ccc(C[C@@H]2NC(=O)[C@@H]3CCCN3[C@H](C(=O)NC(C)(C)C)[C@H](C)NC(=O)[C@H]([C@@H](C)O)NC(=O)[C@H](CC(=O)O)NC(=O)[C@H](CC(C)C)NC(=O)C[C@H](CCCCN)NC2=O)cc1 [Compound 269],31.6
10,CC(C)C[C@@H]1NC(=O)[C@H](CC2CCCCC2)NC(=O)[C@@H]2CCCN2[C@H](C(=O)NC(C)(C)C)[C@H](C)NC(=O)[C@H]([C@@H](C)O)NC(=O)[C@H](CC(=O)O)NC1=O [Compound 7],1.6
11,CC(C)C[C@@H]1NC(=O)[C@H]2CCCCN2C(=O)[C@H](Cc2ccccc2-c2ccccc2)NC(=O)[C@@H]2CCCN2[C@H](C(=O)NC(C)(C)C)[C@H](C)NC(=O)[C@H]([C@@H](C)O)NC(=O)[C@H](CC(=O)O)NC1=O [Compound 134],7.6
12,CC(C)C[C@@H]1NC(=O)[C@H]2C[C@H](O)CN2C(=O)[C@H](Cc2ccc(O)cc2)NC(=O)[C@@H]2CCCN2[C@H](C(=O)NC(C)(C)C)[C@H](C)NC(=O)[C@H]([C@@H](C)O)NC(=O)[C@H](CC(=O)O)NC1=O [Compound 140],9.6
13,CC(C)C[C@@H]1NC(=O)[C@H](Cc2cccc3ccccc23)NC(=O)[C@@H]2CCCN2[C@H](C(=O)NC(C)(C)C)[C@H](C)NC(=O)[C@H]([C@@H](C)O)NC(=O)[C@H](CC(=O)O)NC1=O [Compound 9],1.7
14,C[C@@H]1NC(=O)[C@H]([C@@H](C)O)NC(=O)[C@H](CC(=O)O)NC(=O)[C@H](CC(C)(C)C)NC(=O)c2ccc(-c3ccnc4ccccc34)c(c2)CNC(=O)[C@@H]2CCCN2[C@@H]1C(=O)NC(C)(C)C [Compound 355],1.4
15,CC(C)C[C@@H]1NC(=O)C[C@H](CCCCN)NC(=O)[C@H](Cc2ccccc2-c2ccc(N3CCNCC3)cc2)NC(=O)[C@@H]2CCCN2[C@H](C(=O)NC(C)(C)C)[C@H](C)NC(=O)[C@H]([C@@H](C)O)NC(=O)[C@H](CC(=O)O)NC1=O [Compound 271],34.6
16,CC(C)C[C@@H]1NC(=O)[C@H](CCc2ccccc2)NC(=O)[C@@H]2CCCN2[C@H](C(=O)NC(C)(C)C)[C@H](C)NC(=O)[C@H]([C@@H](C)O)NC(=O)[C@H](CC(=O)O)NC1=O [Compound 6],1.9
17,CC(C)C[C@@H]1NC(=O)[C@H]2CCCCN2C(=O)[C@@H]2CCCN2[C@H](C(=O)NC(C)(C)C)[C@H](C)NC(=O)[C@H]([C@@H](C)O)NC(=O)[C@H](CC(=O)O)NC1=O [Compound 51],3.3
18,Cc1cccc(C)c1-c1cccc(C[C@@H]2NC(=O)[C@@H]3CCCN3[C@H](C(=O)NC(C)(C)C)[C@H](C)NC(=O)[C@H]([C@@H](C)O)NC(=O)[C@H](CC(=O)O)NC(=O)[C@H](CC(C)C)NC(=O)C[C@H](CCCCN)NC2=O)c1 [Compound 265],46.2
19,CC(C)C[C@@H]1NC(=O)[C@H](Cc2ccc(O)cc2)NC(=O)[C@@H]2CCCN2[C@H](C(=O)NC(C)(C)C)[C@H](C)NC(=O)[C@H](C(C)(C)S)NC(=O)[C@H](CC(=O)O)NC1=O [Compound 55],1.1
20,CC(C)C[C@@H]1NC(=O)[C@H]2C[C@H](O)CN2C(=O)[C@H](Cc2cscn2)NC(=O)[C@@H]2CCCN2[C@H](C(=O)NC(C)(C)C)[C@H](C)NC(=O)[C@H]([C@@H](C)O)NC(=O)[C@H](CC(=O)O)NC1=O [Compound 151],4.1
21,CC(C)C[C@@H]1NC(=O)[C@H]2C[C@H](O)CN2C(=O)[C@H](Cc2ccc(CN)cc2)NC(=O)[C@@H]2CCCN2[C@H](C(=O)NC(C)(C)C)[C@H](C)NC(=O)[C@H]([C@@H](C)O)NC(=O)[C@H](CC(=O)O)NC1=O [Compound 152],13.2
22,CO[C@H](C)[C@@H]1NC(=O)[C@H](CC(=O)O)NC(=O)[C@H](CC(C)C)NC(=O)[C@H](Cc2ccccc2)NC(=O)[C@@H]2CCCN2[C@H](C(=O)NC(C)(C)C)[C@H](C)NC1=O [Compound 40],1.9
23,CC(C)C[C@@H]1NC(=O)C[C@H](CCCCN)NC(=O)[C@H](Cc2ccc(O)cc2)NC(=O)[C@@H]2CCCN2[C@H](C(=O)NC(C)(C)C)[C@H](C)NC(=O)[C@H]([C@@H](C)OCc2ccccc2)NC(=O)[C@H](CC(=O)O)NC1=O [Compound 200],2.6
24,CC(C)C[C@@H]1NC(=O)CNC(=O)[C@H](Cc2ccc(CN)cc2)NC(=O)[C@@H]2CCCN2[C@H](C(=O)NC(C)(C)C)[C@H](C)NC(=O)[C@H]([C@@H](C)O)NC(=O)[C@H](CC(=O)O)NC1=O [Compound 165],22.8
25,CC(C)C[C@@H]1NC(=O)[C@@H]2C[C@@H](O)CN2C(=O)[C@H](Cc2ccc(O)cc2)NC(=O)[C@@H]2CCCN2[C@H](C(=O)NC(C)(C)C)[C@H](C)NC(=O)[C@H]([C@@H](C)O)NC(=O)[C@H](CC(=O)O)NC1=O [Compound 139],0.7
26,CC(C)C[C@@H]1NC(=O)c2ccc(-c3cccc(CN)c3)c(c2)CNC(=O)[C@@H]2CCCN2[C@H](C(=O)NC(C)(C)C)[C@H](C)NC(=O)[C@H]([C@@H](C)O)NC(=O)[C@H](CC(=O)O)NC1=O [Compound 382],2.0
